“Also recorded” adds a separate entry of the source. Like-named read-outs stand apart in the source and are kept apart here. One block for each molecule: values may come before it.
Assays:
[1] = molecular target: T1, mushroom tyrosinase (EC 1.14.18.1) (Agaricus bisporus, UniProt C7FF04); assay: Mushroom tyrosinase inhibition assay (L-DOPA, dopachrome absorbance); type: biochemical, Agaricusbisporus
T1 construct: purchased Sigma Chemical Co., ST; Louis, MO
Procedure: The mushroom tyrosinase (EC 1.14.18.1) (Sigma Chemical Co., ST. Louis, MO) was used for in vitro bioassays as described previously with some modifications[39]^,[40]. Briefly, 140 µL of phosphate buffer (20 mM, pH 6.8), 20 µL of mushroom tyrosinase (30 U/mL) and 20 µL of the inhibitor solution were placed in the wells of a 96-well micro plate. After pre-incubation for 10 min at room temperature, 20 µL of L-DOPA (3,4-dihydroxyphenylalanine) (0.85 mM) was added and the plate was further incubated at 25 °C for 20 min. Subsequently the absorbance of dopachrome was measured at 492 nm using a micro plate reader (OPTI Max, Tunable). Kojic acid was used as a reference inhibitor and for negative tyrosinase inhibitor phosphate buffer was used instead of the inhibitor solution. The extent of inhibition by the test compounds was expressed as the percentage of concentration necessary to achieve 50% inhibition (IC50). Each concentration was analysed in three independent experiments run in triplicate. The IC50 values were determined by the data analysis and graphing software Origin 8.6, 64-bit.

mushroom tyrosinase = molecular target: T2, mushroom tyrosinase (Agaricus bisporus, UniProt C7FF04); assay: Kinetic analysis of the inhibition of mushroom tyrosinase (Lineweaver–Burk, Dixon, enzyme concentration plots); type: biochemical, Agaricusbisporus; conditions: for type of inhibition (Lineweaver–Burk plot) / Ki: diphenolase activity, L-DOPA; for Ki: read-out: dissociation constant Ki (Dixon plot); for mode of binding (reversibility of enzyme–inhibitor complex): remaining enzyme activity versus enzyme concentration 1.25, 2.5 and 5 µg/mL
T2 construct: purchased Sigma Chemical Co., ST; Louis, MO
Procedure: To understand the mechanism of mushroom tyrosinase inhibition by compounds 5c and 5d, kinetic studies were conducted. […] Enzyme inhibition kinetics was analysed by Lineweaver–Burk plot and Dixon plots to determine the type of inhibition and inhibition constant (KI).
The inhibitory mechanism of mushroom tyrosinase by compounds 5c (in concentrations: 0.0, 0.0011, 0.0022, 0.0045, 0.0090 and 0.018 µM) and 5d (in concentrations: 0.0, 1.75, 3.5, 7.0, 14, 28 and 56 µM) were investigated.
A series of experiments were performed to determine the inhibition kinetics by following method[41]^,[42]. Inhibitor 5c with concentrations […], 0.0022, 0.0045, 0.009, 0.018 µM and 5d with concentrations 0.0, 1.75, 3.5, 7, 14 and 28 µM, respectively, were used. Substrate L-DOPA concentration was among 0.0625–2 mM in all kinetic study. Pre-incubation and measurement time was the same as discussed in mushroom tyrosinase inhibition assay protocol. The formation of DOPAchrome was continuously monitored at 475 nm for 5 min at a 30 s interval in the microplate reader after addition of enzyme. The inhibition type on the enzyme was assayed by Lineweaver–Burk plots of inverse of velocities (1/V) versus inverse of substrate concentration 1/[S] mM^−1, and the inhibition constant Ki was determined by the Dixon plot of 1/V versus inhibitor concentrations.

[2] = MTT cell viability assay and cell morphology; type: cell-based, murine; conditions: mouse, B16F10 murine melanoma cells, B16F10, 24 µg/ml, read-out: toxic effect in MTT cell viability assay, compared to control normalized to 100%
Procedure: (§1) To test the safety level of 5c compound, MTT assay (3-(4,5-dimethylthiazol-2-yl)-2,5-diphenyltetrazolium Bromide) was performed. The murine melanoma (B16F10) cells (1.5 × 10^5 cells/ml) were seeded in 24 well plates (SPL Korea) with DMEM medium at 37 °C and 5% CO2 incubator. Test compound 5c was dissolved in DMSO and diluted with culture medium to get the final concentrations of 0 (control), 6, 12 and 24 µg/ml, and then added to the cells for 24 h further incubation. The MTT assay was then conducted, and results were calculated in percentage of control. In addition, cellular images were taken by inverted fluorescent microscope (Nikon, ECLIPSE, Tokyo, Japan) to access the 5c effect on cell morphology.

[3] = system: murine melanoma (B16F10) cells; assay: MTT cell viability assay and cell morphology; type: cell-based; conditions: 24 h
Procedure: as §1

[4] = system: murine melanoma (B16F10) cells; assay: Melanin content measurement; type: cell-based
Procedure: For melanin measurement, melanoma (1.5 × 10^5) cells were seeded in cell culture plates for 24 h at 37 °C and 5% CO2incubator. Then cells were incubated with various concentrations of 5c in cell culture medium for further 24 h. Later, assay for melanin measurement was performed following already reported method. Briefly, the cells were trypsinised and centrifuged for 5 min at 1000 rpm. The cell pellet was dissolved in 1 N NaOH at 60 °C for 1 h and melanin content was measured spectrophotometrically at 405 nm wavelengths using a microplate reader (BioTek, synergy HT, Winooski, VT).

[5] = L-DOPA substrate, pH 6.8, 25 °C, read-out: Mushroom tyrosinase inhibition IC50

T2 sequence (C7FF04 2-392): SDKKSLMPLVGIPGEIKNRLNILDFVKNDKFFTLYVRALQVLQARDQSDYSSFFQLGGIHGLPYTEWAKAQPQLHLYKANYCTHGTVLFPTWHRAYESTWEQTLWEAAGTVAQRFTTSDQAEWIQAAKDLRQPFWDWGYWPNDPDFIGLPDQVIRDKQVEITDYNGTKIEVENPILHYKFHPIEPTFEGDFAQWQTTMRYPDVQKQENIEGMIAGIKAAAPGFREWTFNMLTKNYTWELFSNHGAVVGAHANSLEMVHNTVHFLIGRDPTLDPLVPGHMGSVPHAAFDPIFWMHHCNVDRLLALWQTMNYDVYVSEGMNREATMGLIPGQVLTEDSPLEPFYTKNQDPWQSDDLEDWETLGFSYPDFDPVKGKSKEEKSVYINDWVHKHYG
T1 sequence (C7FF04 2-392): as above

Compound: CC(=O)c1ccc(NC(=O)CCl)cc1 [Compound 1]
IC50 [1]: 54.5 ± 3.1 µM

Compound: CC(=O)c1ccc(NC(=O)COC(=O)c2cccc(O)c2)cc1 [Compound 3a, 2-[(4-Acetylphenyl)amino]-2-oxoethyl 3-hydroxybenzoate]
IC50 [1]: 325 ± 16.9 µM

Compound: CC(=O)c1ccc(NC(=O)COC(=O)c2ccc(O)cc2)cc1 [Compound 3b, 2-[(4-Acetylphenyl)amino]-2-oxoethyl 4-hydroxybenzoate]
IC50 [1]: 319 ± 31.9 µM

Compound: CC(=O)c1ccc(NC(=O)COC(=O)c2ccc(O)cc2O)cc1 [Compound 3c, 2-[(4-Acetylphenyl)amino]-2-oxoethyl 2,4-dihydroxybenzoate]
IC50 [1]: 145 ± 16.7 µM

Compound: CC(=O)c1ccc(NC(=O)COC(=O)c2ccc(O)c(O)c2)cc1 [Compound 3d, 2-[(4-Acetylphenyl)amino]-2-oxoethyl 3,4-dihydroxybenzoate]
IC50 [1]: 257 ± 23.4 µM

Compound: CC(=O)c1ccc(NC(=O)COC(=O)c2cc(O)cc(O)c2)cc1 [Compound 3e]
IC50 [1]: 166 ± 14.2 µM
melting point: 249 to 251 °C

Compound: CC(=O)c1ccc(NC(=O)COC(=O)C=Cc2ccccc2)cc1 [Compound 5a, 2-[(4-Acetylphenyl)amino]-2-oxoethyl cinnamate]
IC50 [1]: 63.5 ± 2.5 µM

Compound: CC(=O)c1ccc(NC(=O)COC(=O)/C=C/c2ccc(O)cc2)cc1 [Compound 5b, 2-[(4-Acetylphenyl)amino]-2-oxoethyl (E)-3-(4-hydroxyphenyl)acrylate]
IC50 [1]: 97.3 ± 5.8 µM
melting point: 226 to 228 °C

IC50 [1, 5]: 0.0089 ± 0.0004 µM
type of inhibition (Lineweaver–Burk plot) (mushroom tyrosinase): competitive inhibitor
Ki (mushroom tyrosinase): 0.01 µM
melting point: 236 to 238 °C
Compound: CC(=O)c1ccc(NC(=O)COC(=O)/C=C/c2ccc(O)cc2O)cc1 [Compound 5c, 2-[(4-Acetylphenyl)amino]-2-oxoethyl (E)-3-(2,4-dihydroxyphenyl)acrylate]
mode of binding (reversibility of enzyme–inhibitor complex) (mushroom tyrosinase): irreversibly bind; also recorded: irreversible mode of binding
viability at 24 h, 24 µg/ml [2]: 33.7%
effect on cell viability (MTT) ([3]; B16F10, 12 µg/ml): safe and no significant effect and nontoxic
effect on cell morphology ([3]; B16F10, 3, 6, 12 µg/ml): no effect on cell morphology
antimelanogenic activity ([4]; B16F10, 12 µg/mL): produced antimelenogenic effects
cellular melanin content as compared to control normalized to 100% ([4]; B16F10, 12 µg/ml, 24 h): 82%

IC50 [1, 5]: 8.26 ± 1.7 µM
type of inhibition (Lineweaver–Burk plot) (mushroom tyrosinase): mixed-type inhibitor
Ki (mushroom tyrosinase): 6 µM
Compound: CC(=O)c1ccc(NC(=O)COC(=O)/C=C/c2ccc(Cl)cc2)cc1 [Compound 5d, 2-[(4-Acetylphenyl)amino]-2-oxoethyl-(E)-3-(4-chlorophenyl)acrylate]
mode of binding (reversibility of enzyme–inhibitor complex) (mushroom tyrosinase): irreversibly bind; also recorded: irreversible inhibitor; also recorded: irreversible mode of binding

From publication PMC8853709, “Synthesis, computational studies, tyrosinase inhibitory kinetics and antimelanogenic activity of hydroxy substituted 2-[(4-acetylphenyl)amino]-2-oxoethyl derivatives” (Journal of Enzyme Inhibition and Medicinal Chemistry, 2019)
